Here are results for one molecule from article PMC5626787, “Mouse Nudt13 is a Mitochondrial Nudix Hydrolase with NAD(P)H Pyrophosphohydrolase Activity” (The Protein Journal, 2017).

The target of this experiment is T1, Nudt13 (Mus musculus, UniProt Q8JZU0).
T1 construct: baculovirus, High Five insect cells
T1 sequence (Q8JZU0 1-352): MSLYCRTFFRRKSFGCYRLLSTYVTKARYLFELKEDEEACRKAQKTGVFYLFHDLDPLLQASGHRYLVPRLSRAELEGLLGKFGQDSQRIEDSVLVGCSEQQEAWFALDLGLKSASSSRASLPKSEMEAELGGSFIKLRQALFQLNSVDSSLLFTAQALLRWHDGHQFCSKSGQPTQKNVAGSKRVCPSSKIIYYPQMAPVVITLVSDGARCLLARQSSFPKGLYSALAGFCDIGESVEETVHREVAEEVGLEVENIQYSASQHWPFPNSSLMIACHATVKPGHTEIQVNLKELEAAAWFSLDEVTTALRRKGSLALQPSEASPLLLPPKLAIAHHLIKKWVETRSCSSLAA
The experiment can be described thus: HPLC product analysis, non-linear regression, Michaelis-Menten. Format: biochemical. The settings on record: 2 mM Mn2+, 50 mM Tris-HCl pH 8.0, 1 mM dithiothreitol, 37 °C; hydrolysis to NMNH and AMP. As to the method:
HPLC product analysis, non-linear regression, Michaelis-Menten on Nudt13 | K m and k cat values were determined for NADH under optimal assay conditions

`NC(=O)C1=CN([C@@H]2O[C@H](COP(=O)(O)OP(=O)(O)OC[C@H]3O[C@@H](n4cnc5c(N)ncnc54)[C@H](O)[C@@H]3O)[C@@H](O)[C@H]2O)C=CC1` [NADH]: the Km (as a rule, the concentration of substrate that gives half-maximal velocity) was 340 µM.
